These results are taken from paper PMC7523975, “Alkaloids of Abuta panurensis Eichler: In silico and in vitro study of acetylcholinesterase inhibition, cytotoxic and immunomodulatory activities” (PLoS ONE, 2020).

Each structure is given as a SMILES string.

Assay [1] concerns the target T1, acetylcholinesterase (AChE, TcAChE) (Tetronarce californica, UniProt P04058). As to the kind of experiment: Ellman colorimetric assay with commercial enzyme, […] nm. The format is biochemical.
Assay [2] concerns the target T1, acetylcholinesterase (AChE, TcAChE). As to the kind of experiment: Ellman colorimetric assay with commercial enzyme, […] nm (positive control). In kind it is biochemical.

T1 sequence (P04058 22-564): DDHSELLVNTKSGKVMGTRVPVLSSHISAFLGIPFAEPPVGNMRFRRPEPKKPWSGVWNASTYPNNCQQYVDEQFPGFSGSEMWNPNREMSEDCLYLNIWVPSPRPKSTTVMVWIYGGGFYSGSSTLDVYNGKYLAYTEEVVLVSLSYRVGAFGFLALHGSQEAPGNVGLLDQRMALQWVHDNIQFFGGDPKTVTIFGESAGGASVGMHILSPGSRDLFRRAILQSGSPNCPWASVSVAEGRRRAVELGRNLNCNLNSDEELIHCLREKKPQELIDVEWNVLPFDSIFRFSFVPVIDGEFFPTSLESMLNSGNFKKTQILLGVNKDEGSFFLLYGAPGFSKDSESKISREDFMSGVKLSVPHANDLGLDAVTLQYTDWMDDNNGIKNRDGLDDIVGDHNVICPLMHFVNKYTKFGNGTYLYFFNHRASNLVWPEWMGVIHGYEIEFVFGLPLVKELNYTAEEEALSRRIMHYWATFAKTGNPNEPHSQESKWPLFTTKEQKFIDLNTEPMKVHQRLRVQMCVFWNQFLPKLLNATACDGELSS

In assay [1], `COC1=CC2CCNC3CC4(C=CC(=O)C=C4)C(=C1OC)C23` (stereo not drawn) [compound 2, stepharine] registered an IC50 of 61.2 µM.
Turning to `CN(C)C(=O)Oc1cccc([N+](C)(C)C)c1` [neostigmine], the IC50 in assay [2] turned out to be 3.72 µM.
For the compound `CN(CCCCNC(=O)/C=C/c1ccccc1)CCCNC(=O)/C=C/c1ccccc1` [compound 1, 5-N-methylmaytenine], the IC50 in assay [1] was 19.6 µM.

Broadly, the IC50 is the concentration needed to halve the response being measured. Low values mean higher potency, high ones lower potency.
